Values quoted from earlier work as cited in PMC7494335 (Science Advances, 2020).

Test system: humans
Conditions: in vivo

## NCCc1c[nH]cn1 [histamine]
  pain if injected alone / addition to Dendrocnide extract: neither changed the nature of the pain caused by Dendrocnide extract nor caused substantial long-lasting pain if injected alone
